Laboratory results from US20120149735A1, “1,4-Dihydropyridine Derivatives and Their Uses” (CENTRE HOSPITALIER REGIONAL UNIVERSITAIRE DE LILLE, priority 2009, published 2012).
Where two headings read alike, the source gives them in different places.

Assays:
[1] = biological target: T1, hCB2 cannabinoid receptor (Homo sapiens, UniProt P34972); assay: Competition binding assay, hCB2 membranes, [3H]-CP-55,940
T1 construct: purchased PerkinElmer (Belgium)
Procedure: hCB1 and hCB2 membranes were purchased from PerkinElmer (Belgium). […] Glass fiber filters were purchased from Whatman (Maidstone, U.K.), while Aqualuma was from PerkinElmer (Schaesberg, The Netherlands). Stock solutions of the compounds were prepared in DMSO and further diluted […] with the binding buffer to the desired concentration. Final DMSO concentrations in the assay were less than 0.1%.
The test compounds were present at varying concentrations and the non-specific binding was determined in the presence of 10 μM HU-210. After 1 h the incubation was stopped and the solutions were rapidly filtered through 0.5% PEI pretreated GF/B glass fiber filters on a M-48T Brandell cell harvester and washed twice with 5 mL ice-cold binding buffer without serum albumin. […] Assays were performed at least in triplicate.
(§1) IC50 and EC50 values were determined by non-linear regression analysis performed using the GraphPad prism 4.0 program (GraphPad Software, San Diego). The Ki values (expressed as pKi) were calculated based on the Cheng-Prusoff equation: Ki=IC50/(1+L/Kd). Statistical signification of [^35S]-GTPγS assay results was assessed using an one-way ANOVA followed by a Dunett post-test.

hCB2 receptor = biological target: T2, hCB2 receptor (Homo sapiens, UniProt P34972); assay: [35S]-GTPγS binding assay (CB2 functional activity assay); type: biochemical; conditions: for EC50: [35S]-GTPγS binding, hCB2
T2 construct: purchased PerkinElmer (Belgium)
Procedure: The Emax value is determined by a CB2 functional activity assay (19, 20).
[^35S]-GTPγS binding Assays
[^35S]-GTPγS (1173 Ci/mmol) was purchased from Amersham (Roosendaal, The Netherlands). The binding experiments were performed at 30° C. in plastic tubes containing 40 μg protein in 0.5 mL (final volume) of binding buffer (50 mM Tris-HCl, 3 mM MgCl2, 1 mM EDTA, 100 mM NaCl, 0.1% bovine serum albumin, pH 7.4) supplemented with 20 μM GDP.
The assay was initiated by the addition of [^35S]-GTPγS (0.05 nM, final concentration). The tubes were incubated for 1 h. The incubations were terminated by the addition of 5 mL ice-cold washing buffer (50 mM Tris-HCl, 3 mM MgCl2, 1 mM EDTA, 100 mM NaCl). The suspension was immediately filtered through GF/B filters using a 48-well Brandell cell harvester and washed twice with the same ice-cold buffer. The radioactivity on the filters was counted as mentioned above. Assays were performed in triplicate.
as §1

TNBS-induced colitis = TNBS-induced colitis in mice; type: in vivo, C57B16 mice; conditions: for colitis macroscopic score (Wallace criteria, scale 0 to 10): intraperitoneally once daily from 3 days before TNBS, killed 3 days after TNBS, TNBS only 3.1±0.3; for histological score (Ameho criteria, scale 0 to 6): intraperitoneally once daily, TNBS only 3.7±1; for MPO activity in colon (neutrophils content): TNBS only 20±5; for TNF-alpha mRNA expression in colon: TNBS only 26±8; for IL-1beta mRNA expression in colon: TNBS only 1610±1041
[2] = hCB2 membranes, [3H]-CP-55,940 (1 nM), 30° C., 1 h, read-out: Ki CB2
[3] = read-out: binding affinity (Ki) at the CB2 receptor
[4] = CB2 functional activity assay, basal = 100%, read-out: Emax, bound stated
[5] = percentage of stimulation of [35S]-GTPγS binding, basal value set at 100%, read-out: Functional activity at CB2 EMax

T2 sequence (P34972 whole entry): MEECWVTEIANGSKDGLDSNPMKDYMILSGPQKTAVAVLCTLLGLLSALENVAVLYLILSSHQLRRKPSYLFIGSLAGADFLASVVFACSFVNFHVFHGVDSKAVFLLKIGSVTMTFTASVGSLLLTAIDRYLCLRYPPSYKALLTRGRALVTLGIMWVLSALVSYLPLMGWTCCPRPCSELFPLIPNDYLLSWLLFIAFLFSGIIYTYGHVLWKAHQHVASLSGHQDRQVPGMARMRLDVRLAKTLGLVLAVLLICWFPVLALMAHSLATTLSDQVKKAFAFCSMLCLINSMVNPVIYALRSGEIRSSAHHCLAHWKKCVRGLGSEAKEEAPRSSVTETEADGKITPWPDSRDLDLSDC
T1 sequence (P34972 whole entry): as above

Row | Compound | Ki [1, 2] [nM] | functional character at the CB2 receptor (agonist / inverse agonist) (hCB2 receptor; CB2 functional activity assay) | Emax (hCB2 receptor; [4]) [%] | EC50 (hCB2 receptor) [nM] | Emax (hCB2 receptor; [5]) [%] | melting point [°C] | further results
1 | CCCCCn1cc(C(=O)NC23CC4CC(CC(C4)C2)C3)c(=O)c(I)c1C [Compound 52, N3-(1-Adamantyl)-5-iodo-6-methyl-4-oxo-1-pentyl-1,4-dihydropyridine-3-carboxamide] | 9 ± 1.6 |  |  |  |  |  | Ki [1, 3]: < 500 nM
2 | CCCCCn1cc(C(=O)N[C@H]2CCCc3ccccc32)c(=O)cc1-c1ccccc1 [Compound 16, (S)-4-oxo-1-pentyl-6-phenyl-N-3-(1-(1,2,3,4-tetrahydronaphthyl))-1,4-dihydropyridine-3-carboxamide] | 369 ± 41 | inverse agonists | < 62 | 60 ± 16 | 48 ± 3 | 139 | 
3 | CCn1cc(C(=O)NC(C)C23CC4CC(CC(C4)C2)C3)c(=O)cc1-c1ccccc1 [Compound 5, (R,S)—N-3-(1-(1-Adamantyl)ethyl)-1-ethyl-4-oxo-6-phenyl-1,4-dihydropyridine-3-carboxamide] | 414 ± 61 |  |  |  |  | 224 | Ki [1, 3]: < 500 nM
4 | CCCCCn1cc(C(=O)NC2CCCCC2)c(=O)cc1C(C)(C)C [Compound 21, N3-(Cyclohexyl)-6-tert-butyl-1-pentyl-4-oxo-1,4-dihydropyridine-3-carboxamide] | 29 ± 3 |  |  |  |  | 91 | 
5 | CCCCCn1cc(C(=O)NC23CC4CC(C)(CC(C)(C4)C2)C3)c(=O)cc1-c1ccccc1 [Compound 9, N3-(1-(3,5-Dimethyl)adamantyl)-4-oxo-1-pentyl-6-phenyl-1,4-dihydropyridine-3-carboxamide] | 6.6 ± 0.7 | inverse agonists | < 62 | 5.8 ± 1.1 | 41 ± 2 | 133 | 
6 | CCCCCn1cc(C(=O)NC2CCCCC2)c(=O)cc1-c1ccc(Cl)cc1 [Compound 19, 6-(4-Chlorophenyl)-N-3-cyclohexyl-4-oxo-1-pentyl-1,4-dihydropyridine-3-carboxamide] | 78 ± 9 | inverse agonists | < 62 | 22 ± 4 | 39 ± 2 | 157 | 
7 | CCCCCn1cc(C(=O)NC23CC4CC(CC(C4)C2)C3)c(=O)cc1-c1ccc(Cl)cc1 [Compound 18, N3-(1-Adamantyl)-6-(4-chlorophenyl)-1-pentyl-4-oxo-1,4-dihydropyridine-3-carboxamide] | 79 ± 7 |  |  |  |  | 190 | 
8 | CCCCCn1cc(C(=O)NC2CCCCC2)c(=O)cc1-c1ccccc1 [Compound 13, N3-(Cyclohexyl)-4-oxo-1-pentyl-6-phenyl-1,4-dihydropyridine-3-carboxamide] | 10.6 ± 1.1 | inverse agonists | < 62 | 1.9 ± 0.5 | 62 ± 2 | 120 | 
9 | CC(NC(=O)c1cn(-c2ccccc2)c(-c2ccccc2)cc1=O)C12CC3CC(CC(C3)C1)C2 [Compound 7, (R,S)—N-3-(1-(1-Adamantyl)ethyl)-1,6-diphenyl-4-oxo-1,4-dihydropyridine-3-carboxamide] |  |  |  |  |  | > 250 | Ki [1, 3]: > 500 nM
10 | CCCCCn1cc(C(=O)NC2CCCc3ccccc32)c(=O)cc1-c1ccccc1 (racemic) [Compound 14, (R,S)-4-oxo-1-pentyl-6-phenyl-N-3-(1-(1,2,3,4-tetrahydronaphthyl))-1,4-dihydropyridine-3-carboxamide] | 30.9 ± 3.3 | inverse agonists | < 62 | 5.7 ± 0.7 | 40 ± 1 | 139 | 
11 | JWH-133 [reference compound] |  |  |  |  |  |  | colitis macroscopic score (Wallace criteria, scale 0 to 10) (TNBS-induced colitis): 2.1±0.6; histological score (Ameho criteria, scale 0 to 6) (TNBS-induced colitis): induced a decrease of histological scores; decrease in colitis macroscopic scores (TNBS-induced colitis; vs TNBS only): 34%
12 | CCCCCn1cc(C(=O)NC23CC4CC(CC(C4)C2)C3)c(=O)cc1C(C)(C)C [Compound 20, N3-(1-Adamantyl)-6-tert-butyl-1-pentyl-4-oxo-1,4-dihydropyridine-3-carboxamide] | 29 ± 3 | agonists | > 135 | 12.2 ± 2.5 | 212 ± 3 |  | MPO activity in colon (neutrophils content) (TNBS-induced colitis): 10±3; TNF-alpha mRNA expression in colon (TNBS-induced colitis): 6±1; IL-1beta mRNA expression in colon (TNBS-induced colitis): 22±11; colitis macroscopic score (Wallace criteria, scale 0 to 10) (TNBS-induced colitis): 0.8±0.4; histological score (Ameho criteria, scale 0 to 6) (TNBS-induced colitis): 1.8±0.6; decrease in colitis macroscopic scores (TNBS-induced colitis; vs TNBS only): 74%; decrease of IL-1beta level in colon (TNBS-induced colitis; vs TNBS only): 99%; decrease of MPO activity (TNBS-induced colitis; vs TNBS only): 50%; decrease of TNF-alpha level in colon (TNBS-induced colitis; vs TNBS only): 79%; inhibition of colitis microscopic score (TNBS-induced colitis; vs TNBS only): 51%
13 | CCCCn1cc(C(=O)NC23CC4CC(CC(C4)C2)C3)c(=O)cc1-c1ccccc1 [Compound 10, N3-(1-Adamantyl)-1-butyl-4-oxo-6-phenyl-1,4-dihydropyridine-3-carboxamide] | 18.4 ± 1.3 |  |  |  |  | 146 | 
14 | CCCCCCn1cc(C(=O)NC23CC4CC(CC(C4)C2)C3)c(=O)cc1-c1ccccc1 [Compound 12, N3-(1-Adamantyl)-1-hexyl-4-oxo-6-phenyl-1,4-dihydropyridine-3-carboxamide] | 13.5 ± 0.9 |  |  |  |  | 167 | 
15 | CCCCCn1cc(C(=O)N[C@@H]2CCCc3ccccc32)c(=O)cc1-c1ccccc1 [Compound 15, (R)-4-oxo-1-pentyl-6-phenyl-N-3-(1-(1,2,3,4-tetrahydronaphthyl))-1,4-dihydropyridine-3-carboxamide] | 10.1 ± 1.1 | inverse agonists | < 62 | 1.9 ± 0.4 | 42 ± 2 | 139 | 
16 | CCCCCn1cc(C(=O)NC(C)C23CC4CC(CC(C4)C2)C3)c(=O)cc1-c1ccccc1 [Compound 6, (R,S)—N-3-(1-(1-Adamantyl)ethyl)-4-oxo-1-pentyl-6-phenyl-1,4-dihydropyridine-3-carboxamide] | 14.3 ± 2.1 | inverse agonists | < 62 | 6.5 ± 1.5 | 46 ± 3 | 169 | Ki [1, 3]: < 500 nM
17 | CCCCCn1cc(C(=O)NC23CC4CC(CC(C4)C2)C3)c(=O)cc1-c1ccccc1 [Compound 11, N3-(1-Adamantyl)-4-oxo-1-pentyl-6-phenyl-1,4-dihydropyridine-3-carboxamide] | 4 ± 0.4 |  |  |  |  | 145 | 
18 | CCCCCn1cc(C(=O)NN2CCCCC2)c(=O)cc1-c1ccccc1 [Compound 17, 4-oxo-1-pentyl-6-phenyl-N-3-(piperidin-1-yl)-1,4-dihydropyridine-3-carboxamide] | 92 ± 7 | inverse agonists | < 62 | 26 ± 6 | 48 ± 2 | 122 | 
19 | CCCCCn1cc(C(=O)NCC23CC4CC(CC(C4)C2)C3)c(=O)cc1-c1ccccc1 [Compound 8, N3-((1-Adamantyl)methyl)-4-oxo-1-pentyl-6-phenyl-1,4-dihydropyridine-3-carboxamide] | 23.3 ± 1.9 |  |  |  |  | 154 | 
20 | CCCCCn1cc(C(=O)NC23CC4CC(CC(C4)C2)C3)c(=O)cc1C [Compound 38, N3-(1-Adamantyl)-6-methyl-4-oxo-1-pentyl-1,4-dihydropyridine-3-carboxamide] | 20 ± 3 | agonists | > 135 | 5.5 ± 1.1 | 148 ± 2 | 195 | MPO activity in colon (neutrophils content) (TNBS-induced colitis): 14±4; TNF-alpha mRNA expression in colon (TNBS-induced colitis): 18±4; IL-1beta mRNA expression in colon (TNBS-induced colitis): 385±192; colitis macroscopic score (Wallace criteria, scale 0 to 10) (TNBS-induced colitis): 1.8±0.7; histological score (Ameho criteria, scale 0 to 6) (TNBS-induced colitis): 2.5±0.8; decrease in colitis macroscopic scores (TNBS-induced colitis; vs TNBS only): 42%; decrease of MPO activity (TNBS-induced colitis; vs TNBS only): 34%; Ki ([1]; binding affinity (Ki) at the CB2 receptor): < 500 nM
